Results as given in paper PMC9098913, “In vitro reconstitution of Escherichia coli divisome activation” (Nature Communications, 2022).

Assay: Single-molecule membrane residence time of FtsA
Assay type: binding
Design: Single Molecule Lifetime: unit not given here
Details: for Single Molecule Lifetime, mean: mean of Exp. 1-3, n = 3, Fig. 3b; for mean residence time on the membrane: single-particle tracking, n = 3
Experimental: First, we studied the behaviour of single FtsA proteins on the membrane surface.
After 5 min of incubation, single molecule time lapses were acquired every 125, 250, 500, and 1000 and 2000 ms, with an exposure time of 50 ms. Subsequently, the bulk concentration of FtsA was increased to 0.2/0.4/0.8 µM and time lapses were repeated as described above.
Single molecules of FtsA or FtsZ were tracked using the TrackMate plugin from ImageJ[43]. To obtain the residence time of FtsZ and FtsA, we performed a residence time analysis as described before[40],[47]. Shortly, single molecules were imaged at different acquisition rates (0.1–2 s) and the lifetime of the molecules was extracted from each data set. To account for photobleaching effect, the obtained lifetimes were plotted against the acquisition rate. […] Furthermore, we extracted the diffusion coefficient of FtsA single molecules at increasing concentrations. For this, we filtered the obtained data, by considering only trajectories which are present on the membrane for more than 0.4 s. […] Subsequently, the diffusion coefficient of FtsA molecules was estimated by fitting an MSD curve to each individual trajectory.

For “FtsA WT: wild-type E. coli actin-homologue FtsA, membrane anchor of FtsZ”, the “Single Molecule Lifetime” value (0.1 µM FtsA, Exp. 1) was 15.60, the “Single Molecule Lifetime” value (0.1µM FtsA, Exp. 2) was 17.80 and the “Single Molecule Lifetime” value (0.1 µM FtsA, Exp. 3) was 24.80. For the same molecule, the “Single Molecule Lifetime, mean” value (0.1 µM FtsA) was 19.40, the “mean residence time on the membrane” value (0.1 µM FtsA) was 19.4 ± 3.9 s and the “Single Molecule Lifetime” value (0.2 µM FtsA, Exp. 1) was 13.20. The “Single Molecule Lifetime” value (0.2µM FtsA, Exp. 2) was 21.50, the “Single Molecule Lifetime” value (0.2 µM FtsA, Exp. 3) was 28.80 and the “Single Molecule Lifetime, mean” value (0.2 µM FtsA) was 21.17. For the same molecule, the “Single Molecule Lifetime” value (0.4 µM FtsA, Exp. 1) was 28.70, the “Single Molecule Lifetime” value (0.4µM FtsA, Exp. 2) was 24.00 and the “Single Molecule Lifetime” value (0.4 µM FtsA, Exp. 3) was 26.30. For the same molecule, the “Single Molecule Lifetime, mean” value (0.4 µM FtsA) was 26.33, the “Single Molecule Lifetime” value (0.8 µM FtsA, Exp. 1) was 37.60 and the “Single Molecule Lifetime” value (0.8µM FtsA, Exp. 2) was 32.60. The “Single Molecule Lifetime” value (0.8 µM FtsA, Exp. 3) was 35.20, the “Single Molecule Lifetime, mean” value (0.8 µM FtsA) was 35.13 and the “mean residence time on the membrane” value (0.8 µM FtsA) was 35.1 ± 2.0 s.

B1: FtsA R286W (protein)
chain: MIKATDRKLVVGLEIGTAKVAALVGEVLPDGMVNIIGVGSCPSRGMDKGGVNDLESVVKCVQRAIDQAELMADCQISSVYLALSGKHISCQNEIGMVPISEEEVTQEDVENVVHTAKSVRVRDEHRVLHVIPQEYAIDYQEGIKNPVGLSGVRMQAKVHLITCHNDMAKNIVKAVERCGLKVDQLIFAGLASSYSVLTEDERELGVCVVDIGGGTMDIAVYTGGALRHTKVIPYAGNVVTSDIAYAFGTPPSDAEAIKVRHGCALGSIVGKDESVEVPSVGGRPPWSLQRQTLAEVIEPRYTELLNLVNEEILQLQEKLRQQGVKHHLAAGIVLTGGAAQIEGLAACAQRVFHTQVRIGAPLNITGLTDYAQEPYYSTAVGLLHYGKESHLNGEAEVEKRVTASVGSWIKRLNSWLRKEF
modifications: Cy3 or Cy5 at the N-terminus in the labelled form (labelled CLEPTGG peptide conjugated to the 5xGly tag by sortagging); unlabelled protein also used; left off: TwinStrep-SUMO, N-terminal, cleaved | 5x
In the case of B1, the “Single Molecule Lifetime” value (0.1 µM FtsA, Exp. 1) is reported as 1.99, the “Single Molecule Lifetime” value (0.1µM FtsA, Exp. 2) is reported as 2.89 and the “Single Molecule Lifetime” value (0.1 µM FtsA, Exp. 3) is reported as 3.02. For the same molecule, the “Single Molecule Lifetime, mean” value (0.1 µM FtsA) was 2.63, the “Single Molecule Lifetime” value (0.2 µM FtsA, Exp. 1) was 3.32 and the “Single Molecule Lifetime” value (0.2µM FtsA, Exp. 2) was 7.68. For the same molecule, the “Single Molecule Lifetime” value (0.2 µM FtsA, Exp. 3) was 10.90, the “Single Molecule Lifetime, mean” value (0.2 µM FtsA) was 7.30 and the “Single Molecule Lifetime” value (0.4 µM FtsA, Exp. 1) was 8.16. For the same molecule, the “Single Molecule Lifetime” value (0.4µM FtsA, Exp. 2) was 11.60, the “Single Molecule Lifetime” value (0.4 µM FtsA, Exp. 3) was 5.33 and the “Single Molecule Lifetime, mean” value (0.4 µM FtsA) was 8.36. The “Single Molecule Lifetime” value (0.8 µM FtsA, Exp. 1) was 15.60, the “Single Molecule Lifetime” value (0.8µM FtsA, Exp. 2) was 10.90 and the “Single Molecule Lifetime” value (0.8 µM FtsA, Exp. 3) was 15.80. For the same molecule, the “Single Molecule Lifetime, mean” value (0.8 µM FtsA) was 14.10.
